Experimental findings from the supplement of paper PMC10307832 are described below.

Common to all, as to test: relative viability (nuclei count vs DMSO), 5 days (fraction); higher = more cells survive
Compound in test [1]: C1=CC2=C(C=C(C(=C2N=C1)O)N=NC3=CC4=C(C=C3)C=C(C=C4)S(=O)(=O)O)S(=O)(=O)O + CC1(C)CCC(c2ccc(Cl)cc2)=C(CN2CCN(c3ccc(C(=O)NS(=O)(=O)c4ccc(N[C@H](CCN5CCOCC5)CSc5ccccc5)c(S(=O)(=O)C(F)(F)F)c4)cc3)CC2)C1 [Navitoclax] (partner 0.5 µM)
In a few lines: (§1)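 Lung cancer cell lines in 1536-well plates were dosed by pin tool the day after seeding, either with one drug alone or with a fixed anchor-drug dose plus five library-drug doses (not always all listed) in √10 steps. After 5 days, cells were fixed and their nuclei stained in one step (final 0.05% Triton X-100, 1% formaldehyde, 1 ug/ml Hoechst), then counted on 4× images. Relative viability is the nuclei count in treated wells divided by that in vehicle wells. Values are medians of duplicate plates.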

Compound in test [2]: O=C(NC1CCNCC1)c1n[nH]cc1NC(=O)c1c(Cl)cccc1Cl [AT-7519] + Cc1cc(Nc2cc(N3CCN(C)CC3)nc(Sc3ccc(NC(=O)C4CC4)cc3)n2)n[nH]1 [Tozasertib] (partner 0.1 µM)
In a few lines:
as §1

Compound in test [3]: C1=CC2=C(C=C(C(=C2N=C1)O)N=NC3=CC4=C(C=C3)C=C(C=C4)S(=O)(=O)O)S(=O)(=O)O + COc1cccc2cc(-c3nc([C@H]4CC[C@H](C(=O)O)CC4)n4ncnc(N)c34)[nH]c12 [OSI-027] (partner 0.5 µM)
In outline: as §1

Compound in test [4]: O=C(NC1CCNCC1)c1n[nH]cc1NC(=O)c1c(Cl)cccc1Cl [AT-7519] + C[C@]1(O)C[C@@H](c2nc(-c3ccc4ccc(-c5ccccc5)nc4c3)c3c(N)nccn32)C1 [Linsitinib] (partner 1 µM)
In outline: as §1

Turning to UMC-11, the relative viability turned out to be 0.261 in test [1] (first compound 0.08 µM); 0.334 in test [1] (first compound 0.253 µM); 0.314 in test [1] (first compound 0.8 µM); 0.293 in test [1] (first compound 2.53 µM); 0.333 in test [1] (first compound 8 µM); 0.223 in test [2] (first compound 0.01 µM). For the same cell line, the relative viability in test [2] (first compound 0.03162 µM) was found to be 0.211; in test [2] (first compound 0.3162 µM) it was 0.278; in test [2] (first compound 1 µM) it was 0.219; in test [3] (first compound 0.08 µM), 0.492; in test [3] (first compound 0.253 µM) it was 0.435; in test [3] (first compound 0.8 µM), 0.458. Also, the relative viability in test [3] (first compound 2.53 µM) came to 0.47; in test [3] (first compound 8 µM), 0.485; in test [4] (first compound 0.01 µM) it was 1.17; in test [4] (first compound 0.03162 µM) it was 0.89; in test [4] (first compound 0.3162 µM) it was 0.767; in test [4] (first compound 1 µM) it was 0.344.
